Our source for the EC50 values is US20240228488A1 (TAKEDA PHARMACEUTICAL COMPANY LIMITED, priority 2021, published 2024).

Broadly, the EC50 is the concentration giving half of the maximal effect.

human activated kallikrein enzyme, sequence (P03952 391-638 limits assumed): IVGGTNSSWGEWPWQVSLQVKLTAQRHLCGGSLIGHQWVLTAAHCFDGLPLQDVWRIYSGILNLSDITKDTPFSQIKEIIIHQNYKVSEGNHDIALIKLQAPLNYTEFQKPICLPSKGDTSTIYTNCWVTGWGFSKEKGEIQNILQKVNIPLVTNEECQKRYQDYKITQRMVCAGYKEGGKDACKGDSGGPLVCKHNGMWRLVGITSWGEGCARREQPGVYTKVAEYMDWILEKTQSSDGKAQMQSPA
human activated kallikrein enzyme, sequence (P03952 20-390 partner limits assumed): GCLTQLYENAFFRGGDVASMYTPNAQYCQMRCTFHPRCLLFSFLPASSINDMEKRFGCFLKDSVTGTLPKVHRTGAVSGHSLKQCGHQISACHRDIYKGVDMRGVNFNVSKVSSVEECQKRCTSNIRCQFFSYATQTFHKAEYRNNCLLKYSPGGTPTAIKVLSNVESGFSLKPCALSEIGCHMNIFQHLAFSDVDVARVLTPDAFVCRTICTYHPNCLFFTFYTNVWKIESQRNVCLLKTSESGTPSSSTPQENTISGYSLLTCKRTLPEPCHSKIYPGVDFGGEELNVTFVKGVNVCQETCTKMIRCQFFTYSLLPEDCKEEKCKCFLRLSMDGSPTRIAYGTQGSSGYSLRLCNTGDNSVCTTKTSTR

The target of this test is human activated kallikrein enzyme (Homo sapiens, UniProt P03952). The test is described as follows: Plasma kallikrein inhibition, fluorogenic PFR-AMC substrate, 500 pM activated kallikrein format. It is filed as biochemical. As to conditions: 500 pM activated kallikrein, 300 uM PFR-AMC, 30 min preincubation, 10 min reaction; read-out: Primary Dose Response Assay: Average EC50. In short, it runs like this:
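Fluorogenic readout (ex 380 / em 460 nm) after 10 min room-temperature reaction with 300 uM Pro-Phe-Arg-AMC substrate, following 30 min preincubation of inhibitors with 500 pM enzyme. Buffer: Tris pH 7.5, EDTA, NaCl, PEG-400, Triton X-100. Values given as EC50 ranges.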
As for `Cc1ccnc([C@H]2C[C@@H]2C(=O)Nc2ccc(F)c(NCc3cn4cc(C5CC5)cc(N5CC(=O)N(C)C5=O)c4n3)c2)n1` [Example 656, (1S,2S)—N-(3-(((6-cyclopropyl-8-(3-methyl-2,4-dioxoimidazolidin-1-yl)imidazo[1,2-a]pyridin-2-yl)methyl)amino)-4-fluorophenyl)-2-(4-methylpyrimidin-2-yl)cyclopropane-1-carboxamide], the EC50 is below 1 nM.
Consider `Cc1ccnc([C@H]2C[C@@H]2C(=O)Nc2cc(N[C@H](C)c3cn4cc(C5CC5)cc(N=S(C)(C)=O)c4n3)ncn2)n1` [Example 422, (1S,2S)-N-(6-(((R)-1-(6-cyclopropyl-8-((dimethyl(oxo)-16-sulfaneylidene)amino)imidazo[1,2-a]pyridin-2-yl)ethyl)amino)pyrimidin-4-yl)-2-(4-methylpyrimidin-2-yl)cyclopropane-1-carboxamide], for which the EC50 was below 1 nM.
Then `Cc1ccnc([C@H]2C[C@@H]2C(=O)Nc2cc(OC(C)c3cn4cc(C5CC5)cc(N5CCOC5=O)c4n3)cnn2)n1` (stereo partly drawn) [Example 37, (1S,2S)-N-(5-(1-(6-cyclopropyl-8-(2-oxooxazolidin-3-yl)imidazo[1,2-α]pyridin-2-yl)ethoxy)pyridazin-3-yl)-2-(4-methylpyrimidin-2-yl)cyclopropane-1-carboxamide], with below 1 nM; and `Cc1ccnc([C@H]2C[C@@H]2C(=O)Nc2cn3c(Cc4cn5cc(C6CC6)cc(N6CC(=O)N(C)C6=O)c5n4)nnc3cn2)n1` [Example 630, (1S,2S)—N-(3-((6-cyclopropyl-8-(3-methyl-2,4-dioxoimidazolidin-1-yl)imidazo[1,2-a]pyridin-2-yl)methyl)-[1,2,4]triazolo[4,3-a]pyrazin-6-yl)-2-(4-methylpyrimidin-2-yl)cyclopropane-1-carboxamide], with 1 to 10 nM; and `O=C(Nc1cnnc(NCc2cn3cc(C4CC4)ccc3n2)c1)[C@H]1C[C@@H]1c1cccc(Cl)c1` (racemic) [Example 348, (rac-(1S*,2S*))-2-(3-chlorophenyl)-N-(6-(((6-cyclopropylimidazo[1,2-a]pyridin-2-yl)methyl)amino)pyridazin-4-yl)cyclopropane-1-carboxamide], with 1 to 10 nM.
As to `Cc1ccnc([C@H]2C[C@@H]2C(=O)Nc2cc3c(cn2)nnn3Cc2cn3cc(C4CC4)cc(N4CC(=O)N(C)C4=O)c3n2)n1` [Example I-635, (1S,2S)—N-(1-((6-cyclopropyl-8-(3-methyl-2,4-dioxoimidazolidin-1-yl)imidazo[1,2-a]pyridin-2-yl)methyl)-1H-[1,2,3]triazolo[4,5-c]pyridin-6-yl)-2-(4-methylpyrimidin-2-yl)cyclopropane-1-carboxamide], the EC50 is below 1 nM.
For `CN1C(=O)CN(c2cc(C3CC3)cn3cc(CNc4cc(NC(=O)C5CC5(F)c5cccc(Cl)c5)ncn4)nc23)C1=O` (racemic) [Example 329, rac-2-(3-chlorophenyl)-N-(6-(((6-cyclopropyl-8-(3-methyl-2,4-dioxoimidazolidin-1-yl)imidazo[1,2-a]pyridin-2-yl)methyl)amino)pyrimidin-4-yl)-2-fluorocyclopropane-1-carboxamide], the EC50 lay in the range of 1 to 10 nM.
As for `O=C(Nc1cc(NCc2cn3cc(C4CC4)ccc3n2)ncn1)[C@@H]1C[C@@]12C(=O)Nc1ccc(Cl)cc12` (racemic) [Example 510, rac-(1R*,2R*)-5′-chloro-N-(6-(((6-cyclopropylimidazo[1,2-a]pyridin-2-yl)methyl)amino)pyrimidin-4-yl)-2′-oxospiro[cyclopropane-1,3′-indoline]-2-carboxamide], the figure is 100 to 1000 nM; as for `COc1cc(NCc2cn3cc(C4CC4)ccc3n2)cc(NC(=O)[C@H]2C[C@@H]2c2cccc(Cl)c2)n1` [Example 340, (1S,2S)-2-(3-chlorophenyl)-N-(4-(((6-cyclopropylimidazo[1,2-a]pyridin-2-yl)methyl)amino)-6-methoxypyridin-2-yl)cyclopropane-1-carboxamide], 1 to 10 nM; as for `Cc1ccnc([C@H]2C[C@@H]2C(=O)Nc2cc(N[C@H](C)c3cn4cc(C5CC5)cc(N5CC6CC6C5=O)c4n3)nc(C)n2)n1` (stereo partly drawn) [Example 433, (1S,2S)-N-(6-(((1R)-1-(6-cyclopropyl-8-(2-oxo-3-azabicyclo[3.1.0]hexan-3-yl)imidazo[1,2-a]pyridin-2-yl)ethyl)amino)-2-methylpyrimidin-4-yl)-2-(4-methylpyrimidin-2-yl)cyclopropane-1-carboxamide], below 1 nM.
As for `C[C@H]1[C@H](C(=O)Nc2cc(NCc3cn4cc(C5CC5)ccc4n3)ncn2)[C@H]1c1cccc(Cl)c1` (single isomer, unassigned) [Example 506, (1R*,2R*,3S*)-2-(3-chlorophenyl)-N-(6-(((6-cyclopropylimidazo[1,2-a]pyridin-2-yl)methyl)amino)pyrimidin-4-yl)-3-methylcyclopropane-1-carboxamide], the EC50 is above 6000 nM.
As for `Cc1ccnc([C@H]2C[C@@H]2C(=O)Nc2cccc(OCc3cn4cc(C5CC5)cc(N5CC(=O)N(C)C5=O)c4n3)c2)n1` [Example I-643, (1S,2S)—N-(3-((6-cyclopropyl-8-(3-methyl-2,4-dioxoimidazolidin-1-yl)imidazo[1,2-a]pyridin-2-yl)methoxy)phenyl)-2-(4-methylpyrimidin-2-yl)cyclopropane-1-carboxamide], the figure is below 1 nM; as for `Nc1ccc([C@H]2C[C@@H]2C(=O)Nc2cc(NCc3cn4cc(C5CC5)ccc4n3)ncn2)cc1Cl` (racemic) [Example 278, rac-(1S*,2S*)-2-(4-amino-3-chlorophenyl)-N-(6-(((6-cyclopropylimidazo[1,2-a]pyridin-2-yl)methyl)amino)pyrimidin-4-yl)cyclopropane-1-carboxamide], 100 to 1000 nM.
Then `Cc1ccnc([C@H]2C[C@@H]2C(=O)Nc2cc(N[C@H](C)c3cn4cc(C5CC5)cc(N5CC6(COC6)N(C)C5=O)c4n3)nc(C)n2)n1` [Example 435, (1S,2S)-N-(6-(((R)-1-(6-cyclopropyl-8-(5-methyl-6-oxo-2-oxa-5,7-diazaspiro[3.4]octan-7-yl)imidazo[1,2-a]pyridin-2-yl)ethyl)amino)-2-methylpyrimidin-4-yl)-2-(4-methylpyrimidin-2-yl)cyclopropane-1-carboxamide], with below 1 nM; and `O=C(Nc1cc(NCc2cn3cc(C4CC4)ccc3n2)ccn1)[C@H]1C[C@@H]1c1cc(Cl)ccn1` (single isomer, unassigned) [Example I-269, rac-(1S*,2S*)-2-(4-chloropyridin-2-yl)-N-(4-(((6-cyclopropylimidazo[1,2-a]pyridin-2-yl)methyl)amino)pyridin-2-yl)cyclopropane-1-carboxamide], with 10 to 100 nM.
As to `O=C(Nc1cc(NCc2cn3cc(Cl)ccc3n2)ccn1)[C@H]1C[C@@H]1c1cccc(Cl)c1` [Example I-253, (1S,2S)-N-(4-(((6-chloroimidazo[1,2-a]pyridin-2-yl)methyl)amino)pyridin-2-yl)-2-(3-chlorophenyl)cyclopropane-1-carboxamide], the EC50 was in the range of 1 to 10 nM.
As for `O=C(Nc1cc2c(cn1)OCCN2Cc1cn2cc(C3CC3)ccc2n1)[C@H]1C[C@@H]1c1cccc(Cl)c1` [Example 597, (1S,2S)-2-(3-chlorophenyl)-N-(1-((6-cyclopropylimidazo[1,2-a]pyridin-2-yl)methyl)-2,3-dihydro-1H-pyrido[3,4-b][1,4]oxazin-7-yl)cyclopropane-1-carboxamide], the figure is 1 to 10 nM.
